Measured values reported in paper PMC9579733 (Journal of Orthopaedic Translation, 2022).

Legend:
[1] = test system: farnesoid X receptor (FXR); conditions: ref [11],[12]; cited from earlier work
FXR-RUNX2 signalling = FXR-RUNX2 signalling in femur of OVX mice; type: in vivo, C57BL/6J mice; conditions: 20 mg/kg intravenously daily for 4 weeks, qRT-PCR, n = 6
MC3T3-E1 cells = assay: ALP activity analysis of MC3T3-E1 cells; type: cell-based, mouse; conditions: osteogenic differentiation medium, GPA 50 μM or SGPA 2.5-10 μM; 14 days (method) / 7 days (Fig. 3 legend)
[2] = ref [9],[10]; cited from earlier work
[3] = test system: osteoblast-specific factor 2 (OSF-2); conditions: ref [21]; cited from earlier work
human and mouse OBs = conditions: peptide screened by phage technology; ref [21]; cited from earlier work

Molecule	activation of farnesoid X receptor (FXR) [1]	mRNA expression of Bsep (a target gene for FXR) in femur (FXR-RUNX2 signalling)	mRNA expression of Runx2 in femur (FXR-RUNX2 signalling)	ALP activity (MC3T3-E1 cells)	tissue enrichment of GPA [2]	affinity with osteoblast-specific factor 2 (OSF-2) [3]	targeting of OBs (human and mouse OBs)
O=C(O)C1=CO[C@@H](O[C@@H]2O[C@H](CO)[C@@H](O)[C@H](O)[C@H]2O)[C@@H]2C(CO)=CC[C@H]12 [GPA, Geniposidic acid]	activated	significantly increased	significantly increased	increased	enriched in liver and kidney		
Ser-Asp-Ser-Ser-Asp [SDSSD]						high affinity	can specifically target both human and mouse OBs
